Assay results: patent US5521155A, “Amides of teicoplanin compounds” (Gruppo Lepetit S.p.A, priority 1985, dated 1996)
Values after ≈ are worked out from the molar mass of the structure shown.

Experiments:
[1] = Isoelectric point (pI) by isoelectrofocusing with bioautography detection; format: physicochemical; conditions: IEF technique, polyacrylamide gel
From the text: The isoelectrofocusing (IEF) technique coupled with bioautography detection has been used for the determination of the pI of representative compounds of the invention using the following materials: AMPHOLINE carrier ampholytes (40% w/v) were purchased from LKB Produketer AB, Bromma, Sweden. Acrylamide, N,N'-methylenbisacrylamide (BIS), N,N,N',N'-tetramethylethylenediamine (TEMED) and ammonium persulfate were from Bio Rad Laboratorie, Richmond, Calif., USA. Glycerol and Antibiotic agar N. 1 (Grove and Randall medium N. 1) were from E. Merck Darmstadt FRG. GEL FIX polyester sheets were purchased from Serva Feinbiochemica Heidelberg. Phenolindo (2,6-dichlorophenol) came from BDH Chemicals Ltd. Poole, England.
IEF was made on gel slab using a LKB MULITPHOR 2117 cell and a Bio-Rad Power Supply Model 1420A. Slabs of 24.5×11.5 cm and 1 mm thickness were prepared on a sheet of GEL FIX. Polyacrylamide gels with a concentration of 8% T and with a cross-linkage of 4% C (30% T stock solution was prepared by dissolving 28.8 g of acrylamide and 1.2 g of bis-acrylamide in 100 ml distilled water), glycerol, 3.5% v/v, 2% AMPHOLINE, 0.05% ammonium persulphate as catalyst and 0.05% TEMED as accelerator. The carrier ampholite composition for 35 ml gelling solution was as follows:
The electrode solutions, as recommended by LKB for the respective pH range, were:
The gel was cooled to 4° C. with the aid of a LKB 2209 refrigerated constant temperature circulator. After prefocusing for 30 min. at 5 W, the samples (20 μl containing 0.2 to 2.5 μg of antibiotic) were loaded into the slot at the cathodic side. Electrofocusing was performed using 10 W constant power and was completed after 3-31/2 hours with a final potential of 1400 V.
The pH values were determined by dividing a portion of the gel into 1 cm sections, and eluting the individual pieces at room temperature with 1 ml of 10 mM KCl prior to pH readings.
The isoelectric point of each antibiotic was determined by interpolation on a curve obtained by plotting pH values versus the distance from the anode.
Polyacrylamide gel was placed on a 3 mm layer of agar medium N. 1 inoculated with 1% of Bacillus subtilis ATCC 6633 spore (0.5 OD at 600 nm). After 10 min the gel was removed and the plate was incubated overnight at 37° C. and examined for inhibition zones. The contrast between the area of lysis and that of bacterial growth was enhanced by use of Phenolindo(2,6-dichlorophenol) 1% w/v (oxidation-reduction indicator).

E. coli SKF 12140 = assay: In vitro antibacterial activity, standard agar-dilution test (MIC); format: cell-based; conditions: inoculum about 10^4 CFU/ml, 18-24 h at 37° C.
Experimental: (§1) The culture medium ISOSENSITEST BROTH (Oxoid) and the colture medium TODD-[…] BROTH (Difco) are used for growing staphylococci and streptococci, respectively. Broth cultures are diluted so that the final inoculum is about 10^4 colony forming units/ml (CFU/ml).

[2] = system: Proteus vulgaris X 19H ATCC 881; assay: as above; format: cell-based; conditions: inoculum about 10^4 CFU/ml, 18-24 h at 37° C.
Experimental: as §1

[3] = system: Pseudomonas aeruginosa ATCC 10145; assay: as above; format: cell-based; conditions: inoculum about 10^4 CFU/ml, 18-24 h at 37° C.
Experimental: as §1

S. aureus ATCC 6538 = assay: as above; format: cell-based; conditions: inoculum about 10^4 CFU/ml, 18-24 h at 37° C.
Experimental: as §1

S. aureus Tour = assay: as above; format: cell-based; conditions: inoculum about 10^4 CFU/ml, 18-24 h at 37° C.
Experimental: as §1

[4] = system: S. epidermidis ATCC 12228; assay: as above; format: cell-based; conditions: inoculum about 10^4 CFU/ml, 18-24 h at 37° C.
Experimental: as §1

S. faecalis ATCC 7080 = assay: as above; format: cell-based; conditions: inoculum about 10^4 CFU/ml, 18-24 h at 37° C.
Experimental: as §1

S. pneumoniae UC 41 = assay: as above; format: cell-based; conditions: inoculum about 10^4 CFU/ml, 18-24 h at 37° C.
Experimental: as §1

S. pyogenes C 203 = assay: as above; format: cell-based; conditions: inoculum about 10^4 CFU/ml, 18-24 h at 37° C.
Experimental: as §1

S. pyogenes L 49 = assay: In vivo test in mice experimentally infected with S. pyogenes L 49 (ED50); conditions: mice infected with S. pyogenes L 49; for ED50, route of administration os.: oral
Acid-base titration (pK) = format: physicochemical; conditions: for pK1 / pK2: acid-base titration in METHYLCELLOSOLVE/H2O 4:1 (v/v), 0.01N KOH, salt form per Table IV
Experimental: The following table (Table IV) reports the acid-base titration data of some representative compounds of the invention. The assays were carried out in METHYLCELLOSOLVE/H2 O, 4:1(v/v). A sample is dissolved in METHYLCELLOSOLVE/H2 O, 4:1(v/v) (10 umole in about 20 ml) and then 0.01N HCl (2 ml) is added and the mixture is titrated with 0.01N KOH in the same solvent mixture.

Compound	Isoelectric point (pI) [1]	MIC E. coli SKF 12140 (E. coli SKF 12140)	MIC Proteus vulgaris X 19H ATCC 881 [2]	MIC Pseudomonas aeruginosa ATCC 10145 [3]	MIC S. aureus ATCC 6538 (S. aureus ATCC 6538)	MIC S. aureus Tour (S. aureus Tour)	MIC S. epidermidis ATCC 12228 [4]	MIC S. faecalis ATCC 7080 (S. faecalis ATCC 7080)	MIC S. pneumoniae UC 41 (S. pneumoniae UC 41)	MIC S. pyogenes C 203 (S. pyogenes C 203)	pK1 (Acid-base titration (pK))	pK2 (Acid-base titration (pK))	pK3 (value between brackets) (Acid-base titration (pK); between brackets: due to titration of the carboxylic function of the salifying acid)	ED50, route of administration os. (S. pyogenes L 49)	ED50, route of administration s.c (S. pyogenes L 49)
CCOC(=O)CNC(=O)C1NC(=O)C2NC(=O)C(NC(=O)C3NC(=O)C4NC(=O)C(Cc5ccc(c(Cl)c5)Oc5cc3cc(c5O)Oc3ccc(cc3Cl)C2OC2OC(CO)C(O)C(O)C2NC(C)=O)NC(=O)C(N)c2ccc(O)c(c2)Oc2cc(O)cc4c2)c2ccc(O)c(c2)-c2c(O)cc(O)cc21 (stereo not drawn) [Compound 16]	7.8	128 mg/L (≈ 86.1 µM)	> 128 mg/L	> 128 mg/L	0.5 mg/L (≈ 0.336 µM)	1 mg/L (≈ 0.672 µM)	0.12 mg/L (≈ 0.0807 µM)	1 mg/L (≈ 0.672 µM)	1 mg/L (≈ 0.672 µM)	0.25 mg/L (≈ 0.168 µM)				> 300 mg/kg	5 mg/kg
CCCCN(CCCC)CCCNC(=O)C1NC(=O)C2NC(=O)C(NC(=O)C3NC(=O)C4NC(=O)C(Cc5ccc(c(Cl)c5)Oc5cc3cc(c5O)Oc3ccc(cc3Cl)C2O)NC(=O)C(N)c2ccc(O)c(c2)Oc2cc(O)cc4c2)c2ccc(O)c(c2)-c2c(O)cc(O)cc21 (stereo not drawn) [Compound 20]	8.7	8 mg/L (≈ 5.85 µM)	32 mg/L (≈ 23.4 µM)	64 mg/L (≈ 46.8 µM)	0.6 mg/L (≈ 0.439 µM)	0.25 mg/L (≈ 0.183 µM)	0.063 mg/L (≈ 0.0461 µM)	0.25 mg/L (≈ 0.183 µM)	0.12 mg/L (≈ 0.0878 µM)	0.06 mg/L (≈ 0.0439 µM)	6.1	8.3		> 300 mg/kg	0.72 mg/kg
NC1C(=O)NC2Cc3ccc(c(Cl)c3)Oc3cc4cc(c3O)Oc3ccc(cc3Cl)C(O)C3NC(=O)C(NC(=O)C4NC(=O)C(NC2=O)c2cc(O)cc(c2)Oc2cc1ccc2O)c1ccc(O)c(c1)-c1c(O)cc(O)cc1C(C(=O)N1CCN(c2ccccn2)CC1)NC3=O (stereo not drawn) [Compound 24]		32 mg/L (≈ 23.8 µM)	> 128 mg/L	> 128 mg/L	0.06 mg/L (≈ 0.0446 µM)	0.12 mg/L (≈ 0.0893 µM)	0.063 mg/L (≈ 0.0469 µM)	0.12 mg/L (≈ 0.0893 µM)	0.06 mg/L (≈ 0.0446 µM)	0.06 mg/L (≈ 0.0446 µM)	5.75	7.4	6.6	> 300 mg/kg	0.72 mg/kg

Further lines, with some results ahead:

Isoelectric point (pI) [1]	MIC E. coli SKF 12140 (E. coli SKF 12140)	MIC Proteus vulgaris X 19H ATCC 881 [2]	MIC Pseudomonas aeruginosa ATCC 10145 [3]	MIC S. aureus ATCC 6538 (S. aureus ATCC 6538)	MIC S. aureus Tour (S. aureus Tour)	MIC S. epidermidis ATCC 12228 [4]	MIC S. faecalis ATCC 7080 (S. faecalis ATCC 7080)	MIC S. pneumoniae UC 41 (S. pneumoniae UC 41)	MIC S. pyogenes C 203 (S. pyogenes C 203)	pK1 (Acid-base titration (pK))	pK2 (Acid-base titration (pK))	pK3 (value between brackets) (Acid-base titration (pK); between brackets: due to titration of the carboxylic function of the salifying acid)	Compound	ED50, route of administration os. (S. pyogenes L 49)	ED50, route of administration s.c (S. pyogenes L 49)
8.9	8 mg/L (≈ 6.23 µM)	16 mg/L (≈ 12.5 µM)	32 mg/L (≈ 24.9 µM)	0.06 mg/L (≈ 0.0468 µM)	0.12 mg/L (≈ 0.0935 µM)	0.016 mg/L (≈ 0.0125 µM)	0.12 mg/L (≈ 0.0935 µM)	0.12 mg/L (≈ 0.0935 µM)	0.06 mg/L (≈ 0.0468 µM)				CN(C)CCCNC(=O)C1NC(=O)C2NC(=O)C(NC(=O)C3NC(=O)C4NC(=O)C(Cc5ccc(c(Cl)c5)Oc5cc3cc(c5O)Oc3ccc(cc3Cl)C2O)NC(=O)C(N)c2ccc(O)c(c2)Oc2cc(O)cc4c2)c2ccc(O)c(c2)-c2c(O)cc(O)cc21 (stereo not drawn) [Compound 18]	140 mg/kg	0.31 mg/kg
8.7	8 mg/L (≈ 6.1 µM)	32 mg/L (≈ 24.4 µM)	32 mg/L (≈ 24.4 µM)	0.12 mg/L (≈ 0.0915 µM)	0.12 mg/L (≈ 0.0915 µM)	0.032 mg/L (≈ 0.0244 µM)	0.12 mg/L (≈ 0.0915 µM)	0.12 mg/L (≈ 0.0915 µM)	0.06 mg/L (≈ 0.0458 µM)	6.30	8.0		CCN(CC)CCCNC(=O)C1NC(=O)C2NC(=O)C(NC(=O)C3NC(=O)C4NC(=O)C(Cc5ccc(c(Cl)c5)Oc5cc3cc(c5O)Oc3ccc(cc3Cl)C2O)NC(=O)C(N)c2ccc(O)c(c2)Oc2cc(O)cc4c2)c2ccc(O)c(c2)-c2c(O)cc(O)cc21 (stereo not drawn) [Compound 19]	> 300 mg/kg	0.18 mg/kg
